*1 amine or outer side, *2 acyl side, *3 side chain or, on linkers, in order; H or OH if unused. Where a SMILES comes first, the peptide text is derived from it. Bridges are numbered along the chain shown (N, C = ends). [ ]: non-standard residue; d: D form. Trp(1-CH2CO) = O=C([C@H](Cc1cn(CC(=O)[*:3])c2ccccc12)N[*:1])[*:2]; X21 = Cc1ccc(B(O)O[*:3])c(CNC[C@H](N[*:1])C(=O)[*:2])c1; X27 = O=C([C@H](CNCc1ccccc1B(O)O[*:3])N[*:1])[*:2]; Hyp = O=C(O)[C@@H]1C[C@@H](O)CN1; NMeNle = CCCC[C@H](NC)C(=O)O; NMeA = CN[C@@H](C)C(=O)O; Dab = NCC[C@H](N)C(=O)O
Target: PD-1/PD-L1 (Homo sapiens (Human), UniProt Q9NZQ7)
Sequence (Q9NZQ7 18-239): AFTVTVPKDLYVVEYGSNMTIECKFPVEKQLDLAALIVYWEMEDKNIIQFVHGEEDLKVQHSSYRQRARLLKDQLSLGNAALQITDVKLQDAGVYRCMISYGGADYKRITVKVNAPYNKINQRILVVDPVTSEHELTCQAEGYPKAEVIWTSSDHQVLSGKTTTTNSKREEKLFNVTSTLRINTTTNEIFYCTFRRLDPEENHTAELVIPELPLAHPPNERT
Assay: PD-1/PD-L1 Homogenous Time-Resolved Fluorescence (HTRF) binding assay
Settings: PD-L1-His 10 nM, PD-1-Ig 20 nM; read-out: HTRF IC50

| Compound | IC50 [nM] |
| --- | --- |
| CCCC[C@H]1C(=O)N(C)[C@@H](CCCC)C(=O)N[C@@H](CC(C)C)C(=O)N[C@H](C(=O)NCC(N)=O)CSCC(=O)N[C@@H](Cc2ccc(O)cc2)C(=O)N(C)[C@@H](C)C(=O)N[C@@H](CC(N)=O)C(=O)N2CCC[C@H]2C(=O)N[C@H]2CNCc3cc(C)ccc3B(O)OC(=O)Cn3cc(c4ccccc43)C[C@H](NC(=O)[C@H](CCN)NC(=O)[C@H](Cc3c[nH]c4ccccc34)NC(=O)[C@@H]3C[C@@H](O)CN3C(=O)[C@H](CC(C)C)NC2=O)C(=O)N1C [Example 1016] ({CH2CO}-Y[NMeA]NP[X21]L[Hyp]W[Dab][Trp(1-CH2CO)][NMeNle][NMeNle]LCG-NH2; ester 5-10; thioether N-14) | 8.3 |
| CCCC[C@H]1C(=O)N(C)[C@@H](CCCC)C(=O)N[C@@H](CC(C)C)C(=O)N[C@H](C(=O)NCC(N)=O)CSCC(=O)N[C@@H](Cc2ccc(O)cc2)C(=O)N(C)[C@@H](C)C(=O)N[C@@H](CC(N)=O)C(=O)N2CCC[C@H]2C(=O)N[C@H]2CNCc3ccccc3B(O)OC(=O)Cn3cc(c4ccccc43)C[C@H](NC(=O)[C@H](CCN)NC(=O)[C@H](Cc3c[nH]c4ccccc34)NC(=O)[C@@H]3C[C@@H](O)CN3C(=O)[C@H](CC(C)C)NC2=O)C(=O)N1C [Example 1003] ({CH2CO}-Y[NMeA]NP[X27]L[Hyp]W[Dab][Trp(1-CH2CO)][NMeNle][NMeNle]LCG-NH2; ester 5-10; thioether N-14) | 7.8 |

— patent publication US20230365627A1, “MACROCYCLIC PEPTIDE BORONATE IMMUNOMODULATORS” (Bristol-Myers Squibb Company, priority 2020, published 2023)
